Type in all cases: biochemical
For one assay, the target named is human cathepsin S (Homo sapiens, UniProt P25774). The assay is described as follows: Assay of cathepsin S inhibitory activity in vitro. The settings on record: IC50 against human cathepsin S; substrate Z-VVR-AMC 20 μM; 25° C.; read-out: Cat-S. How it is done:
Assay Method of Cathepsin S Inhibitory Activity In Vitro
0.25 ng/L was the final concentration of Cathepsin S in the enzyme reaction, and Z-VVR-AMC with the final concentration of 20 μM was added into the reaction system as substrate, in the reaction system the test compound and enzyme had been incubated at 25° C. for 15 min.

The target of the next assay is T1, human cathepsin K (Homo sapiens, UniProt P43235).
T1 sequence (P43235 115-329): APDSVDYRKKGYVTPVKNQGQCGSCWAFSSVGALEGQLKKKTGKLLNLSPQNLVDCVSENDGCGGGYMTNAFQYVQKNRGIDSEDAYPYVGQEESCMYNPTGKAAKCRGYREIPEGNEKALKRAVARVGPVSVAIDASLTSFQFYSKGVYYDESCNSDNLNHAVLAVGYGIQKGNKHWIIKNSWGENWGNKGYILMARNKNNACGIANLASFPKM
In words: Assay of cathepsin K inhibitory activity in vitro. The settings on record: IC50 against human cathepsin K; substrate Z-Phe-Arg-AMC 10 μM; 25° C.; read-out: Cat-K. How it is done: Assay Method of Cathepsin K Inhibitory Activity In Vitro
Using 45000-fold diluted cathepsin K solution and 10 μM Z-Phe-Arg-AMC as substrate, the test compound and cathepsin K solution were incubated at 25° C. for 15 min in a 15 μL reaction system according to the optimized experimental condition.

Another assay has as its target human cathepsin B (Homo sapiens, UniProt P07858). The assay is described as follows: Assay of cathepsin B inhibitory activity in vitro. Conditions: IC50 against human cathepsin B; substrate Z-Phe-Arg-AMC 10 μM; 25° C.; read-out: Cat-B. How it is done:
Assay Method of Cathepsin B Inhibitory Activity In Vitro
0.01 ng/μL was the final concentration of Cathepsin B in the enzyme reaction, and Z-Phe-Arg-AMC with the final concentration of 10 μM was added into the reaction system as substrate, in the reaction system the test compound and enzyme had been incubated at 25° C. for 15 min.

A further assay addresses human cathepsin L (Homo sapiens, UniProt P07711). The assay is described as follows: Assay of cathepsin L inhibitory activity in vitro. Conditions: IC50 against human cathepsin L; substrate Z-Phe-Arg-AMC 10 μM; 25° C.; read-out: Cat-L. On the procedure:
Assay Method of Cathepsin L Inhibitory Activity In Vitro
0.01 ng/μL was the final concentration of Cathepsin L in the enzyme reaction, and Z-Phe-Arg-AMC with the final concentration of 10 μM was added into the reaction system as substrate, in the reaction system the test compound and enzyme had been incubated at 25° C. for 15 min.

pIC50: −log10 of the molar value.

Our source for the IC50 values is patent US10494364B2, “Cathepsin K inhibitors and application thereof” (SUNSHINE LAKE PHARMA CO., LTD., priority 2015, dated 2019).

Sequence of human cathepsin L (P07711 114-333): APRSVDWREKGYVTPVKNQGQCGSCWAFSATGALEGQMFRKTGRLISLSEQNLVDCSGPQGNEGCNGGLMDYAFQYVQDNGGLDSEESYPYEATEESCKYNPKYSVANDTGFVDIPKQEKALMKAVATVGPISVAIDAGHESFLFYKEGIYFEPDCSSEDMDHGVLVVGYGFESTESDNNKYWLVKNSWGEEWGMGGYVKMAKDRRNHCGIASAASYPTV
Sequence of human cathepsin S (P25774 115-331): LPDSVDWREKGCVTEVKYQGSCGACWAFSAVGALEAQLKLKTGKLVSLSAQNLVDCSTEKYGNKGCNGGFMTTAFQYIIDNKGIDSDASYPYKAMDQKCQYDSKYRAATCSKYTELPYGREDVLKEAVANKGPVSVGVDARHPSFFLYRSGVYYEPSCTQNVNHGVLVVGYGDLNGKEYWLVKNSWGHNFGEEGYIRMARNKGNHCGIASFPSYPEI

Take `N#CC1(NC(=O)C2(NC(=O)c3cc4ccc(-c5ccc6c(c5)OCCO6)cc4o3)CCC(F)(F)CC2)CC1` [Example 33, N-(1-((1-cyanocyclopropyl)carbamoyl)-4,4-difluorocyclohexyl)-6-(2,3-dihydrobenzo[b][1,4]dioxin-6-yl)benzofuran-2-carboxamide]: the pIC50 on human cathepsin S was less than 5.00; on human cathepsin K, 8.53; on human cathepsin B, 5.64; on human cathepsin L, less than 5.00.

Take `N#CC1(NC(=O)C2(NC(=O)c3cc4ccc(-c5csc(C6(O)COC6)n5)cc4o3)CCCCC2)CC1` [Example 78]: the pIC50 at human cathepsin S was 5.68; on human cathepsin K, 9.02; on human cathepsin B, 6.55; on human cathepsin L it was not above 5.00.

`CS(=O)(=O)c1ccc(-c2ccc3cc(C(=O)NC4(C(=O)NC5(C#N)CC5)CCC(F)(F)CC4)oc3c2)cc1` [Example 2, N-(1-((1-cyanocyclopropyl)carbamoyl)-4,4-difluorocyclohexyl)-6-(4-(methylsulfonyl)phenyl)benzofuran-2-carboxamide]: the pIC50 on human cathepsin S is 5.40; at human cathepsin K, 8.86; on human cathepsin B, 6.06; at human cathepsin L, less than 5.00.

With `N#CC1(NC(=O)C2(NC(=O)c3cc4ccc(-c5ccc(C6(O)COC6)nc5)cc4o3)CCCCC2)CC1` [Example 77], the pIC50 at human cathepsin S was 5.98; on human cathepsin K, 9.17; on human cathepsin B, 6.75; on human cathepsin L it was not above 5.00.

As for `N#CC1(NC(=O)C2(NC(=O)c3cc4ccc(-c5ccc(-n6cncn6)cc5)cc4o3)CCCCCC2)CC1` [Example 61], the pIC50 was less than 5.00 at human cathepsin S, 8.90 at human cathepsin K, 6.37 on human cathepsin B and less than 5.00 at human cathepsin L.

Regarding `N#CC1(NC(=O)C2(NC(=O)c3cc4ccc(-c5ccc6c(c5)OCO6)cc4o3)CCC(F)(F)CC2)CC1` [Example 91], the pIC50 on human cathepsin S is less than 5.00; at human cathepsin K, 8.89; on human cathepsin B, 5.60; at human cathepsin L, less than 5.00.

Consider `CS(=O)(=O)Nc1ccc(-c2ccc3cc(C(=O)NC4(C(=O)NC5(C#N)CC5)CCC(F)(F)CC4)oc3c2)cc1` [Example 96], for which the pIC50 at human cathepsin S was 5.67; on human cathepsin K it was 9.28; at human cathepsin B, 6.15; at human cathepsin L it was less than 5.00.

With `N#CC1(NC(=O)C2(NC(=O)c3cc4ccc(-c5csc(N6CCCC6=O)n5)cc4o3)CCCCC2)CC1` [Example 63], the pIC50 on human cathepsin S is less than 5.00; at human cathepsin K, 8.80; on human cathepsin B, 5.92; at human cathepsin L, less than 5.00.

For the molecule `CS(=O)(=O)c1ccc(-c2ccc3cc(C(=O)NC4(C(=O)NC5(C#N)CC5)CCCCCC4)oc3c2)cc1` [Example 81], the pIC50 on human cathepsin S was 5.80; on human cathepsin K it was 8.87; at human cathepsin B it was 5.62; at human cathepsin L, less than 5.00.

Consider `COc1ccc(-c2ccc3cc(C(=O)NC4(C(=O)NC5(C#N)CC5)CCC(F)(F)CC4)oc3c2)cc1OC` [Example 4, N-(1-((1-cyanocyclopropyl)carbamoyl)-4,4-difluorocyclohexyl)-6-(3,4-dimethoxyphenyl)benzofuran-2-carboxamide], for which the pIC50 was less than 5.00 on human cathepsin S, 8.68 on human cathepsin K, 5.60 on human cathepsin B and less than 5.00 at human cathepsin L.

For the molecule `N#CC1(NC(=O)C2(NC(=O)c3cc4ccc(-c5ccc(C6(N)COC6)cc5)cc4o3)CCCCC2)CC1` [Example 1, 6-(4-(3-aminooxetan-3-yl)phenyl)-N-(1-((1-cyanocyclopropyl)carbamoyl)cyclohexyl)benzofuran-2-carboxamide], the pIC50 at human cathepsin S is 5.74; on human cathepsin K it was 9.72; on human cathepsin B it was 7.66; at human cathepsin L it was 5.82.

On to `COc1cc(-c2ccc3cc(C(=O)NC4(C(=O)NC5(C#N)CC5)CCC(F)(F)CC4)oc3c2)ccc1-n1cncn1` [Example 39, N-(1-((1-cyanocyclopropyl)carbamoyl)-4,4-difluorocyclohexyl)-6-(3-methoxy-4-(1H-1,2,4-triazol-1-yl)phenyl)benzofuran-2-carboxamide], for which the pIC50 was less than 5.00 on human cathepsin S, 9.51 at human cathepsin K, 6.39 at human cathepsin B and less than 5.00 on human cathepsin L.

As to `N#CC1(NC(=O)C2(NC(=O)c3cc4ccc(-c5ccc(C6(O)CCS(=O)(=O)CC6)cc5)cc4o3)CCC(F)(F)CC2)CC1` [Example 27, N-(1-((1-cyanocyclopropyl)carbamoyl)-4,4-difluorocyclohexyl)-6-(4-(4-hydroxy-1,1-dioxidotetrahydro-2H-thiopyran-4-yl)phenyl)benzofuran-2-carboxamide], the pIC50 at human cathepsin S was 6.40; on human cathepsin K, 9.08; on human cathepsin B, 5.68; at human cathepsin L, less than 5.00.

As for `N#CC1(NC(=O)C2(NC(=O)c3cc4ccc(-c5ccc(-n6cncn6)cc5)cc4o3)CCCCC2)CC1` [Example 84], the pIC50 on human cathepsin S was 5.01; at human cathepsin K, 8.89; on human cathepsin B, 6.07; at human cathepsin L, less than 5.00.

Turning to `CS(=O)(=O)c1nc(-c2ccc3cc(C(=O)NC4(C(=O)NC5(C#N)CC5)CCCCC4)oc3c2)cs1` [Example 66], the pIC50 at human cathepsin S is 6.01; at human cathepsin K it was 9.09; on human cathepsin B, 6.27; on human cathepsin L it was less than 5.00.

Take `N#CC1(NC(=O)C2(NC(=O)c3cc4ccc(-c5ccc(S(=O)(=O)N6CCOCC6)cc5)cc4o3)CCC(F)(F)CC2)CC1` [Example 47, N-(1-((1-cyanocyclopropyl)carbamoyl)-4,4-difluorocyclohexyl)-6-(4-(morpholinosulfonyl)phenyl)benzofuran-2-carboxamide]: the pIC50 was less than 5.00 at human cathepsin S, 9.00 on human cathepsin K, less than 5.00 at human cathepsin B and less than 5.00 on human cathepsin L.

Take `N#CC1(NC(=O)C2(NC(=O)c3cc4ccc(-c5csc(N6CCS(=O)(=O)CC6)n5)cc4o3)CCCCC2)CC1` [Example 67]: the pIC50 at human cathepsin S is 6.00; on human cathepsin K, 9.19; at human cathepsin B it was 6.27; on human cathepsin L it was less than 5.00.

Take `N#CC1(NC(=O)C2(NC(=O)c3cc4ccc(-c5ccc(OC6COC6)cc5)cc4o3)CCC(F)(F)CC2)CC1` [Example 19, N-(1-((1-cyanocyclopropyl)carbamoyl)-4,4-difluorocyclohexyl)-6-(4-(oxetan-3-yloxy)phenyl)benzofuran-2-carboxamide]: the pIC50 at human cathepsin S was 5.64; at human cathepsin K, 8.70; at human cathepsin B, less than 5.00; on human cathepsin L it was less than 5.00.

On to `COc1cc(-c2ccc3cc(C(=O)NC4(C(=O)NC5(C#N)CC5)CCC(F)(F)CC4)oc3c2)ccc1S(C)(=O)=O` [Example 97], for which the pIC50 at human cathepsin S is 5.64; on human cathepsin K, 8.86; on human cathepsin B it was 6.45; at human cathepsin L it was less than 5.00.

As for `N#CC1(NC(=O)C2(NC(=O)c3cc4ccc(-c5ccc(C6(O)CCS(=O)(=O)CC6)cc5)cc4o3)CCCCC2)CC1` [Example 76], the pIC50 is 6.47 on human cathepsin S, 9.26 at human cathepsin K, 6.92 at human cathepsin B and less than 5.00 at human cathepsin L.

On to `N#CC1(NC(=O)C2(NC(=O)c3cc4ccc(-c5ccc(C6CCS(=O)(=O)CC6)cc5)cc4o3)CCC(F)(F)CC2)CC1` [Example 86], for which the pIC50 at human cathepsin S was 5.33; at human cathepsin K, 8.96; at human cathepsin B, 5.17; on human cathepsin L, less than 5.00.
